Here are results for 32 compounds from patent US10329289B2, “6,7-dihydro-5H-pyrrolo[3,4-B]pyridin-5-one allosteric modulators of the M4 muscarinic acetylcholine receptor” (Merck Sharp & Dohme Corp., priority 2015, dated 2019).

The assay addresses T1, human M4 muscarinic acetylcholine receptor (Homo sapiens, UniProt P08173).
T1 construct: expressed in transfected cells; host or cells: CHO-K1
T1 sequence (P08173 1-479): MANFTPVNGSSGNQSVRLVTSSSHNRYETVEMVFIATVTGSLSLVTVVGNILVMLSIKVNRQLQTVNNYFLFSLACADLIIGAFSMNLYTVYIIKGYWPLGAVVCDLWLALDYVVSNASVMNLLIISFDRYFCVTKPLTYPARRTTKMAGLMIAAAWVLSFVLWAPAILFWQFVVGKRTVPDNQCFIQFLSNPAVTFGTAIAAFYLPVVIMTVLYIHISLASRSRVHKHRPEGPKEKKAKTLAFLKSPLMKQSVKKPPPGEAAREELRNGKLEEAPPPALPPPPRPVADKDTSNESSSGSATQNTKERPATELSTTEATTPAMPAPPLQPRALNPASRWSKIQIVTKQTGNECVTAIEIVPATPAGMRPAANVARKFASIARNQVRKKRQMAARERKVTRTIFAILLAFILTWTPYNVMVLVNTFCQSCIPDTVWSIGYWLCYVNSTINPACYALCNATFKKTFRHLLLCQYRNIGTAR
The assay can be described thus: human FLIPR-based M4 PAM assay (Ca2+ mobilization, CHO-K1 cells with human M4 receptor and Gαqi5). In kind it is cell-based. The note with it: acetylcholine at 20% of maximum response, read-out: M4 PAM IP. Put shortly: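 CHO-K1 cells stably expressing human M4 and chimeric Gαqi5 were dye-loaded ~1 h at 37 °C and read for Ca2+ fluorescence. Compound followed by acetylcholine at an EC20 (sometimes an EC70 third addition); inflection point from a 4-parameter logistic fit.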
For orientation: Calcium assays in cells follow changes in intracellular calcium, usually with a dye or a luminescent sensor.
In the case of `Cc1cc2c(nc1N1CCC(Oc3ccc(N)nc3)CC1)CNC2=O` [Example 104, 2-(4-((6-aminopyridin-3-yl)oxy)piperidin-1-yl)-3-methyl-6,7-dihydro-5H-pyrrolo[3,4-b]pyridin-5-one], the EC50 stood at 60 nM.

In the case of `Cc1cc2c(nc1N1CCC(Oc3ccc(N4CCC4)nc3)CC1)CNC2=O` [Example 105, 2-(4-((6-(azetidin-1-yl)pyridin-3-yl)oxy)piperidin-1-yl)-3-methyl-6,7-dihydro-5H-pyrrolo[3,4-b]pyridin-5-one], the EC50 amounted to 104 nM.

For the compound `Cc1cc2c(nc1N1CCC(Oc3ccc(N(C)C)nc3)CC1)CNC2=O` [Example 106, 2-(4-((6-(dimethylamino)pyridin-3-yl)oxy)piperidin-1-yl)-3-methyl-6,7-dihydro-5H-pyrrolo[3,4-b]pyridin-5-one], the EC50 turned out to be 298 nM.

Take `Cc1cc2c(nc1N1CCC(Oc3ccc4c(c3)NCCO4)CC1)CNC2=O` [Example 107, 2-(4-((3,4-dihydro-2H-benzo[b][1,4]oxazin-6-yl)oxy)piperidin-1-yl)-3-methyl-6,7-dihydro-5H-pyrrolo[3,4-b]pyridin-5-one]: the EC50 was 87 nM.

Turning to `Cc1cc(OC2CCN(c3nc4c(cc3C)C(=O)NC4)CC2)ccc1F` [Example 108, 2-(4-(4-fluoro-3-methylphenoxy)piperidin-1-yl)-3-methyl-6,7-dihydro-5H-pyrrolo[3,4-b]pyridin-5-one], the EC50 stood at 59 nM.

As to `Cc1cc2c(nc1N1CCC(Oc3ccc4c(c3)CCO4)CC1)CNC2=O` [Example 109, 2-(4-((2,3-dihydrobenzofuran-5-yl)oxy)piperidin-1-yl)-3-methyl-6,7-dihydro-5H-pyrrolo[3,4-b]pyridin-5-one], the EC50 was 20 nM.

With `Cc1cc2c(nc1N1CCC(Oc3ccc4c(c3)C(=O)OC4)CC1)CNC2=O` [Example 110, 3-methyl-2-(4-((3-oxo-1,3-dihydro-2-benzofuran-5-yl)oxy)piperidin-1-yl)-6,7-dihydro-5H-pyrrolo[3,4-b]pyridin-5-one], the EC50 was 39 nM.

Turning to `COC(=O)c1cncc(OC2CCN(c3nc4c(cc3C)C(=O)NC4)CC2)c1` [Example 111, methyl 5-((1-(3-methyl-5-oxo-6,7-dihydro-5H-pyrrolo[3,4-b]pyridin-2-yl)piperidin-4-yl)oxy)nicotinate], the EC50 worked out at 4360 nM.

`Cc1cc2c(nc1N1CCC(Oc3ccc4c(c3)COCC4)CC1)CNC2=O` [Example 112, 2-(4-(isochroman-7-yloxy)piperidin-1-yl)-3-methyl-6,7-dihydro-5H-pyrrolo[3,4-b]pyridin-5-one]: the EC50 was 20 nM.

Turning to `Cc1cc2c(nc1N1CCC(Oc3ccc4c(c3)OCCC4)CC1)CNC2=O` [Example 113, 2-(4-(chroman-7-yloxy)piperidin-1-yl)-3-methyl-6,7-dihydro-5H-pyrrolo[3,4-b]pyridin-5-one], the EC50 stood at 50 nM.

Consider `Cc1cc(OC2CCN(c3nc4c(cc3C)C(=O)NC4)CC2)cnc1C` [Example 114, 2-(4-((5,6-dimethylpyridin-3-yl)oxy)piperidin-1-yl)-3-methyl-6,7-dihydro-5H-pyrrolo[3,4-b]pyridin-5-one], for which the EC50 is 88 nM.

On to `COc1ncc(OC2CCN(c3nc4c(cc3C)C(=O)NC4)CC2)cc1C` [Example 115, 2-(4-((6-methoxy-5-methylpyridin-3-yl)oxy)piperidin-1-yl)-3-methyl-6,7-dihydro-5H-pyrrolo[3,4-b]pyridin-5-one], for which the EC50 worked out at 119 nM.

In the case of `Cc1cc2c(nc1N1CCC(Oc3ccc4c(c3)CCCO4)CC1)CNC2=O` [Example 116, 2-(4-(chroman-6-yloxy)piperidin-1-yl)-3-methyl-6,7-dihydro-5H-pyrrolo[3,4-b]pyridin-5-one], the EC50 turned out to be 45 nM.

For `Cc1cc2c(nc1N1CCC(Oc3ccc4[nH]nc(C)c4c3)CC1)CNC2=O` [Example 117, 3-methyl-2-(4-((3-methyl-1H-indazol-5-yl)oxy)piperidin-1-yl)-6,7-dihydro-5H-pyrrolo[3,4-b]pyridin-5-one], the EC50 came out at 17 nM.

Regarding `Cc1cc2c(nc1N1CCC(Oc3ccc4c(c3)CCC(=O)N4)CC1)CNC2=O` [Example 118, 6-((1-(3-methyl-5-oxo-6,7-dihydro-5H-pyrrolo[3,4-b]pyridin-2-yl)piperidin-4-yl)oxy)-3,4-dihydroquinolin-2(1H)-one], the EC50 stood at 141 nM.

With `Cc1ccc(OC2CCN(c3nc4c(cc3C)C(=O)NC4)CC2)cc1C` [Example 119, 2-(4-(3,4-dimethylphenoxy)piper-idin-1-yl)-3-methyl-6,7-dihydro-5H-pyrrolo[3,4-b]pyridin-5-one], the EC50 came out at 149 nM.

Turning to `Cc1cc2c(nc1N1CCC(Oc3ccc(OCC(F)(F)F)nc3)CC1)CNC2=O` [Example 120, 3-methyl-2-(4-((6-(2,2,2-trifluoroethoxy)pyridin-3-yl)oxy)piperidin-1-yl)-6,7-dihydro-5H-pyrrolo[3,4-b]pyridin-5-one], the EC50 stood at 256 nM.

`Cc1cc2c(nc1N1CCC(Oc3ccc4c(c3)CCOC4=O)CC1)CNC2=O` [Example 121, 3-methyl-2-(4-((1-oxoisochroman-6-yl)oxy)piperidin-1-yl)-6,7-dihydro-5H-pyrrolo[3,4-b]pyridin-5-one]: the EC50 came out at 1920 nM.

For `Cc1nc2ccc(OC3CCN(c4nc5c(cc4C)C(=O)NC5)CC3)cc2s1` [Example 122, 3-methyl-2-(4-((2-methylbenzo[d]thiazol-6-yl)oxy)piperidin-1-yl)-6,7-dihydro-5H-pyrrolo[3,4-b]pyridin-5-one], the EC50 amounted to 2110 nM.

As to `Cc1nc2cc(OC3CCN(c4nc5c(cc4C)C(=O)NC5)CC3)ccc2o1` [Example 123, 3-methyl-2-(4-((2-methylbenzo[d]oxazol-5-yl)oxy)piperidin-1-yl)-6,7-dihydro-5H-pyrrolo[3,4-b]pyridin-5-one], the EC50 stood at 144 nM.

Turning to `Cc1cc2c(nc1N1CCC(Oc3ccc(OC(F)(F)F)nc3)CC1)CNC2=O` [Example 124, 3-methyl-2-(4-((6-(trifluoromethoxy)pyri-din-3-yl)oxy)piperidin-1-yl)-6,7-dihydro-5H-pyrrolo[3,4-b]pyridin-5-one], the EC50 stood at 362 nM.

With `Cc1cc2c(nc1N1CCC(Oc3ccc4c(c3)C(C)(C)CCO4)CC1)CNC2=O` [Example 125, 2-(4-((4,4-dimethylchroman-6-yl)oxy)piperidin-1-yl)-3-methyl-6,7-dihydro-5H-pyrrolo[3,4-b]pyridin-5-one], the EC50 was 612 nM.

For the compound `Cc1cc2c(nc1N1CCC(Oc3ccc4c(c3)COC4(C)C)CC1)CNC2=O` [Example 126, 2-(4-((1,1-dimethyl-1,3-dihydro-2-benzofuran-5-yl)oxy)piperidin-1-yl)-3-methyl-6,7-dihydro-5H-pyrrolo[3,4-b]pyridin-5-one], the EC50 is 216 nM.

Consider `Cc1cc2c(nc1N1CCC(Oc3ccc4c(c3)CCC(C)(C)O4)CC1)CNC2=O` [Example 127, 2-(4-((2,2-dimethylchroman-6-yl)oxy)piperidin-1-yl)-3-methyl-6,7-dihydro-5H-pyrrolo[3,4-b]pyridin-5-one], for which the EC50 came out at 480 nM.

`Cc1cc2c(nc1N1CCC(Oc3ccc4ccc(=O)[nH]c4c3)CC1)CNC2=O` [Example 128, 7-((1-(3-methyl-5-oxo-6,7-dihydro-5H-pyrrolo[3,4-b]pyridin-2-yl)piperidin-4-yl)oxy)quinolin-2(1H)-one]: the EC50 came out at 2370 nM.

With `Cc1cc2c(nc1N1CCC(Oc3ccc4c(c3)c(C)nn4C)CC1)CNC2=O` [Example 129, 2-(4-((1,3-dimethyl-1H-indazol-5-yl)oxy)piperidin-1-yl)-3-methyl-6,7-dihydro-5H-pyrrolo[3,4-b]pyridin-5-one], the EC50 came to 1090 nM.

Take `Cc1cc2c(nc1N1CCC(Oc3ccc4c(c3)C(C)(C)CO4)CC1)CNC2=O` [Example 130, 2-(4-((3,3-dimethyl-2,3-dihydrobenzofuran-5-yl)oxy)piperidin-1-yl)-3-methyl-6,7-dihydro-5H-pyrrolo[3,4-b]pyridin-5-one]: the EC50 amounted to 105 nM.

For `Cc1cc2c(nc1N1CCC(Oc3ccccn3)CC1)CNC2=O` [Example 131, 3-methyl-2-(4-(pyridin-2-yloxy)piperidin-1-yl)-6,7-dihydro-5H-pyrrolo[3,4-b]pyridin-5-one], the EC50 came out at 1520 nM.

In the case of `Cc1cc2c(nc1N1CCC(Oc3ccc4c(c3)OCCO4)CC1)CNC2=O` [Example 132, 2-(4-((2,3-dihydrobenzo[b][1,4]dioxin-6-yl)oxy)piperidin-1-yl)-3-methyl-6,7-dihydro-5H-pyrrolo[3,4-b]pyridin-5-one], the EC50 came to 30 nM.

As to `Cc1cc2c(nc1N1CCC(Oc3ccc4c(c3)OCC(=O)N4)CC1)CNC2=O` [Example 133, 7-((1-(3-methyl-5-oxo-6,7-dihydro-5H-pyrrolo[3,4-b]pyridin-2-yl)piperidin-4-yl)oxy)-2H-benzo[b][1,4]oxazin-3(4H)-one], the EC50 amounted to 611 nM.

Consider `Cc1ccc(OC2CCN(c3nc4c(cc3C)C(=O)NC4)CC2)cc1F` [Example 134, 2-(4-(3-fluoro-4-methylphenoxy)piperidin-1-yl)-3-methyl-6,7-dihydro-5H-pyrrolo[3,4-b]pyridin-5-one], for which the EC50 amounted to 167 nM.

Turning to `Cc1cc2c(nc1N1CCC(Oc3ccc4c(c3)C(=O)NCC4)CC1)CNC2=O` [Example 135, 7-((1-(3-methyl-5-oxo-6,7-dihydro-5H-pyrrolo[3,4-b]pyridin-2-yl)piperidin-4-yl)oxy)-3,4-dihydroisoquinolin-1(2H)-one], the EC50 came to 217 nM.
